Experiment [1] relates to PfRuvB3. As to the kind of experiment: PfRuvB3 unwinding activity: requirement of co-factors and effects of salt/EDTA. As to conditions: for Relative activity (%), PfRuvB3 unwinding activity: standard reaction = 35. Type of experiment: biochemical, Plasmodium falciparum. As to the method: (§1) Unwinding of [^32P]-labelled partial duplex DNA was employed as a measurement of helicase activity. The reaction mixture (10 µl) contained 20 mM Tris–HCl pH 9.0, 8 mM DTT, 2 mM MgCl2, 2 mM ATP, 10 mM KCl, 4% (w/v) sucrose, […] BSA, [^32P]-labelled DNA duplex substrate (Table 1) and purified PfRuvB3. The assay was performed at 37 °C for 90 min (unless indicated otherwise) and terminated with addition of 10X DNA loading dye (Fermentas, USA) and further incubation at 37 °C for 5 min. Helicase substrate and product were separated by 12% non-denaturing PAGE and then the gel was exposed to an X-ray film. DNA unwinding was quantified by densitometric analysis of exposed substrate and product bands using GeneTools (Syngene). Percent unwinding is calculated using the following formula: [band density of product [single-stranded (ss)DNA] / (band density of ssDNA + band density of substrate (duplex DNA)] × 100 minus [percent unwinding in the absence of enzyme].
The ability of PfRuvB3 to hydrolyze different NTPs was studied by including 2 mM dATP, dCTP, dGTP, or dTTP in place of ATP in the standard reaction assay. The effects of ATP concentrations ranging from 0.3 to 20 mM on helicase activity were also determined. Divalent cation requirement was investigated mixture 2 mM CaCl2, CuCl2, NiSO4, ZnCl2, FeSO4, MnCl2 or MgSO4 in place of MgCl2. Effects of salt (0-200 mM NaCl in place of 10 mM KCl) and EDTA (5 mM) also were evaluated.

Experiment [2] addresses PfRuvB3. The experiment can be described thus: Effect of DNA helicase inhibitors on PfRuvB3 unwinding (helicase) activity. Type of experiment: biochemical, Plasmodium falciparum. Particulars: recombinant PfRuvB3; M13-17-mer duplex DNA pre-incubated with 0.1 to 50 μM drug for 10 min; 37 °C 90 min. As to the method: as §1
Known DNA helicase inhibitors, aphidicolin genistein, daunorubicin, doxorubicin, mitoxantrone, and netropsin (Sigma, USA) were prepared as 10^−2 M stock solutions in dimethylsulfoxide (DMSO) and stored at −20 °C until used. All compounds were diluted with 10 mM Tris–HCl, pH 9.0 to specified concentrations for the assay. M13-17-mer duplex DNA was pre-incubated with 0.1 to 50 μM drug for 10 min prior to addition to the standard helicase assay mixture. The 0.5% (v/v final concentration) of DMSO was used as solvent control to determine its effects on helicase activity. The dose–response curves of relative activities of PfRuvB3 and various drug concentrations were generated, and half-maximal inhibitory concentration (IC50), the concentration of compound to inhibit enzyme activity by 50%, was obtained using GraphPad Prism 6.01 software.

The target in experiment [3] is P. falciparum 60 kDa DNA helicase (PfDH60). Also on record: method as in PMID 16884495. As to conditions: cited from earlier work.
Experiment [4] deals with P. falciparum UvrD helicase (PfUDN). As to conditions: cited from earlier work.
Experiment [5] deals with P. falciparum Dbp5/DDX19 homolog (PfD66). Also on record: method as in PMID 21980563. Particulars: cited from earlier work.
Experiment [6] concerns the target P. falciparum 45 kDa helicase (PfH45). Also on record: method as in PMID 17822710. As to conditions: cited from earlier work.
The test system of another experiment is parasite growth. Also on record: method as in PMID 16772048. As to conditions: read-out: IC50, parasite growth inhibition; cited from earlier work.
For experiment [7], the target named is P. falciparum DNA helicase A (PfDH A). On the set-up: method as in PMID 16772048. Particulars: cited from earlier work.
In experiment [8] the target is human DNA helicase (HDH II). Also on record: method as in PMID 1614415. Particulars: cited from earlier work.
Setting [9] is: 2 mM divalent cation salt in place of MgCl2, 1 μg PfRuvB3.
The mark [10] stands for this setting: 2 mM dNTP in place of ATP, 1 μg PfRuvB3.

Molecules are shown by their SMILES. Some results are limits rather than exact numbers.

As to `O=S(=O)([O-])[O-].[Mg+2]` [MgSO4], the “Relative activity (%), PfRuvB3 unwinding activity” value (from here on “Relative activity (%)”) in the experiment on PfRuvB3 [1] (setting [9]) worked out at 37%.
As for `[Cl][Ni][Cl]` [NiCl2], in the experiment on PfRuvB3 [1] (setting [9]), the “Relative activity (%)” value is listed as 34%.
What is called IC50 is the concentration that inhibits the measured activity by half. On to `O=c1c(-c2ccc(O)cc2)coc2cc(O)cc(O)c12` [genistein], for which the IC50 at PfRuvB3 [2] was over 50 µM.
`[Cl][Mn][Cl]` [MnCl2]: the “Relative activity (%)” value in the experiment on PfRuvB3 [1] (setting [9]) is under 2%.
Consider `[Cl][Cu][Cl]` [CuCl2], for which the “Relative activity (%)” value with PfRuvB3 [1] (setting [9]) turned out to be 36%.
Regarding `O=C1c2c(O)ccc(O)c2C(=O)c2c(NCCNCCO)ccc(NCCNCCO)c21` [mitoxantrone], the IC50 on PfRuvB3 [2] was over 50 µM.
Take `Nc1nc2c(ncn2[C@H]2C[C@H](O)[C@@H](COP(=O)(O)OP(=O)(O)OP(=O)(O)O)O2)c(=O)[nH]1` [dGTP]: the “Relative activity (%)” value with PfRuvB3 [1] (setting [10]) is under 2%.
With `Nc1ncnc2c1ncn2[C@H]1C[C@H](O)[C@@H](COP(=O)(O)OP(=O)(O)OP(=O)(O)O)O1` [dATP], in the experiment on PfRuvB3 [1] (setting [10]), the “Relative activity (%)” value was 33%.
As for `Cn1cc(NC(=O)c2cc(NC(=O)CN=C(N)N)cn2C)cc1C(=O)NCCC(=N)N` [netropsin], the IC50 was 500 nM in [3]; 3.3 µM in [4]; 3.2 µM in [5]; 7.09 µM at PfRuvB3 [2]; 800 nM in experiment [6].
In the case of `[Ca+2].[Cl-].[Cl-]` [CaCl2], the “Relative activity (%)” value in the experiment on PfRuvB3 [1] (setting [9]) is given as under 2%.
On to `C[C@@]1(CO)[C@H](O)CC[C@@]2(C)[C@H]1CC[C@H]1C[C@@H]3C[C@@]12CC[C@]3(O)CO` [aphidicolin], for which the concentration for half-maximal inhibition (IC50) at PfRuvB3 [2] is over 50 µM.
In the case of `COc1cccc2c1C(=O)c1c(O)c3c(c(O)c1C2=O)C[C@@](O)(C(C)=O)C[C@@H]3O[C@H]1C[C@H](N)[C@H](O)[C@H](C)O1` [daunorubicin], the IC50 in experiment [3] was 3000 nM; in [4], 4.4 µM; with parasite growth, 2500 nM; on PfRuvB3 [2], 0.76 µM; in [6], 5000 nM; in [7], 2000 nM. The IC50 in experiment [8] was 6.23 µM.
`[Cl-].[Na+]` [NaCl]: in the experiment on PfRuvB3 [1] (100 mM NaCl), the “Unwinding activity of PfRuvB3” value is “almost absent”. Moreover, the “Relative activity (%)” value in the experiment with PfRuvB3 [1] (+NaCl (200 mM)) is under 2%. In addition, in the experiment with PfRuvB3 [1] (NaCl 200 mM), the Enzyme activity inhibited was about 98%.
For the compound `[Cl-].[Cl-].[Zn+2]` [ZnCl2], the “Relative activity (%)” value in the experiment with PfRuvB3 [1] (setting [9]) is 30%.
On to `COc1cccc2c1C(=O)c1c(O)c3c(c(O)c1C2=O)C[C@@](O)(C(=O)CO)C[C@@H]3O[C@H]1C[C@H](N)[C@H](O)[C@H](C)O1` [doxorubicin], for which the concentration for half-maximal inhibition (IC50) in the experiment with parasite growth is 1500 nM; at PfRuvB3 [2], 2.6 µM.
As to `Cc1cn([C@H]2C[C@H](O)[C@@H](COP(=O)(O)OP(=O)(O)OP(=O)(O)O)O2)c(=O)[nH]c1=O` [dTTP], the “Relative activity (%)” value in the experiment on PfRuvB3 [1] (setting [10]) is recorded as under 2%.
With `O=C(O)CN(CCN(CC(=O)O)CC(=O)O)CC(=O)O` [EDTA], the “Relative activity (%)” value with PfRuvB3 [1] (+EDTA (5 mM)) is listed as under 2%. In addition, in the experiment on PfRuvB3 [1] (EDTA 5 mM added to reaction mixture), the Helicase function result is given as “complete loss of helicase function”.
For the compound `O=S(=O)([O-])[O-].[Fe+2]` [FeSO4], in the experiment on PfRuvB3 [1] (setting [9]), the “Relative activity (%)” value is recorded as under 2%.
Take `Nc1ccn([C@H]2C[C@H](O)[C@@H](COP(=O)(O)OP(=O)(O)OP(=O)(O)O)O2)c(=O)n1` [dCTP]: the “Relative activity (%)” value in the experiment with PfRuvB3 [1] (setting [10]) is under 2%.

Values taken from PMC5093981 (Malaria Journal, 2016).
